Publication PMC4549746, “Zearalenone in the Intestinal Tissues of Immature Gilts Exposed per os to Mycotoxins” (Toxins, 2015)
Where “and” joins values, the source holds several entries; their conditions need not be identical. Equal entries are not always repeated. Where two headings read alike, the source gives them in different places.

Assay: ZEN concentrations and carryover factor in intestinal tissues and liver of pre-pubertal gilts exposed per os (HPLC)
Format: in vivo
Settings: 40 μg/kg BW daily per os; for concentration at 4 weeks / concentration at 5 weeks / concentration at 1 week / concentration at 2 weeks / concentration at 3 weeks / concentration at 6 weeks: female, pig, oral
Protocol: The animals were divided into an experimental group (E, n = 18) and a control group (C, n = 21). Group E animals were orally administered ZEN at 40 μg/kg BW. Group C pigs were fed a placebo. The animals were fed complete diets in a restricted feeding regimen (Table 1). The daily dose of ZEN (40 µg/kg BW) was administered to each animal individually, which corresponds to exposure to 957–1014 µg ZEN/kg of a complete diet, depending on daily feed intake. Zearalenone was biosynthesized, purified and standardized by the Department of Chemistry of the Poznań University of Life Sciences. The experiment covered a period of 42 days. The mycotoxin was administered per os daily, in gelatine capsules before the morning feeding. The ZEN dose was adjusted to the body weight of the experimental animals. The mycotoxin was administered in capsules to prevent problems associated with uneven feed intake. Mycotoxin samples were diluted in 300 μL of 96% ethyl alcohol (96% ethyl alcohol, SWW 2442-90, Polskie Odczynniki Chemiczne SA, Gliwice, Poland) to the required dose level (based on body weight). Final solutions were stored at room temperature for 12 h to evaporate the solvent. The animals were weighed every 7 days to update mycotoxin doses for each gilt. Three animals from the experimental group and the control group each were sacrificed on Days 1, 7, 14, 21, 28, 35 and 42 (a total of 6 gilts in each week of exposure), excluding day 1, when only 3 control group animals were scarified. Every week, tissue samples were collected from the porcine gastrointestinal tract (duodenum, first and middle sections, jejunum, ileum, cecum, ascending colon, transverse colon, descending colon, middle section, and the liver, left lobe). Tissue samples were collected from the whole intestinal cross-sections.
Post-mortem tissue samples were collected from the duodenum, jejunum, ileum, cecum, ascending colon, transverse colon, descending colon and the liver after rinsing with phosphate buffer. Pure tissues were stored at −80 °C until shredding and extraction.
Tissue samples (2 g) were homogenized with 9 cm^3 of methanol for 4 min; they were transferred to centrifuge tubes with a minimal amount of the sediment, and the remainder was combined with 5 cm^3 of methanol and repeatedly homogenized. The extracts were combined and centrifuged for 10 min. The supernatant was transferred to a graduated test tube; its volume was read from the scale, and it was evaporated under a stream of nitrogen at a temperature of 60 °C to 0.1–0.2 cm^3 of water. The evaporated product was combined with 2 cm^3 of deionized water, 2 cm^3 of 0.2 M sodium acetate and 500 µL of […] solution. After 16 h of incubation at 37 °C, the reaction was stopped by adding 0.5 cm^3 of acetonitrile. The mixture was quantitatively transferred to a centrifuge tube; it was combined with 10 cm^3 of deionized water and centrifuged for 10 min at 3500 rpm. The supernatant was applied to the Zearala-Test™ column at the rate of 1–2 drops per second. Mycotoxins were eluted from the column with 1.5 mL of methanol; the solvent was evaporated, and the residue was reconstituted with 1 mL of methanol for HPLC analysis.
The concentrations of ZEN and its derivatives were determined by HPLC with the use of the Waters 2695 Separations Module, Waters 2475 Multi λ Fluorescence Detector and Waters 2996 Array Detector. Excitation and emission wavelengths were 274 and 440 nm, respectively. The reverse-phase column was C-18 Nova Pak (3.9 × 150 mm), and the mobile phase was acetonitrile-water-methanol (46:46:8, v/v/v) at a flow rate of 0.5 mL·min^−1. The mycotoxins were quantified by measuring the […] of the peaks based on the relevant calibration curves (correlation coefficient of 0.9996 for ZEN, 0.9989 for α-ZEL and 0.9976 for β-ZEL). Detection limits were determined at 0.001 µg·g^−1 for ZEN, 0.003 µg·g^−1 for α-ZEL and 0.002 µg·g^−1 for β-ZEL. […]

[1] = Week I of exposure, total ZEN dose 280 µg/kg BW
[2] = Week II of exposure, total ZEN dose 560 µg/kg BW
[3] = Week III of exposure, total ZEN dose 840 µg/kg BW
[4] = Week IV of exposure, total ZEN dose 1120 µg/kg BW
[5] = Week V of exposure, total ZEN dose 1400 µg/kg BW
[6] = Week VI of exposure, total ZEN dose 1680 µg/kg BW

SMILES: C[C@H]1CCCC(=O)CCC/C=C/c2cc(O)cc(O)c2C(=O)O1 [ZEN, zearalenone]
- Carryover Factor (CF), Ascending Colon [1]: 0.0054
- Carryover Factor (CF), Cecum [1]: 0.0162
- Carryover Factor (CF), Descending Colon [1]: 0.0167
- Carryover Factor (CF), Duodenum [1]: 0.031
- Carryover Factor (CF), Ileum [1]: 0.016
- Carryover Factor (CF), Jejunum [1]: 0.035
- Carryover Factor (CF), Liver [1]: 0.0225
- Carryover Factor (CF), Transverse Colon [1]: 0.0049
- Carryover Factor (CF), Ascending Colon [2]: 0.0028
- Carryover Factor (CF), Cecum [2]: 0.0075
- Carryover Factor (CF), Descending Colon [2]: 0.0121
- Carryover Factor (CF), Duodenum [2]: 0.022
- Carryover Factor (CF), Ileum [2]: 0.009
- Carryover Factor (CF), Jejunum [2]: 0.035
- Carryover Factor (CF), Liver [2]: 0.0139
- Carryover Factor (CF), Transverse Colon [2]: 0.0082
- Carryover Factor (CF), Ascending Colon [3]: 0.0037
- Carryover Factor (CF), Descending Colon [3]: 0.0090
- Carryover Factor (CF), Duodenum [3]: 0.014
- Carryover Factor (CF), Ileum [3]: 0.008
- Carryover Factor (CF), Jejunum [3]: 0.016
- Carryover Factor (CF), Liver [3]: 0.0154
- Carryover Factor (CF), Transverse Colon [3]: 0.0046
- Carryover Factor (CF), Ascending Colon [4]: 0.0042
- Carryover Factor (CF), Cecum [4]: 0.0030
- Carryover Factor (CF), Descending Colon [4]: 0.1830
- Carryover Factor (CF), Duodenum [4]: 0.019
- Carryover Factor (CF), Ileum [4]: 0.004
- Carryover Factor (CF), Jejunum [4]: 0.039
- Carryover Factor (CF), Liver [4]: 0.0162
- Carryover Factor (CF), Transverse Colon [4]: 0.0065
- ZEN Concentrations (x¯ and SD), Ascending Colon [4]: 4.69 ± 0.45 ng/g
- ZEN Concentrations (x¯ and SD), Descending Colon [4]: 205.01 ± 94.70 ng/g
- ZEN Concentrations (x¯ and SD), Jejunum [4]: 43.82 ± 7.63 ng/g
- ZEN Concentrations (x¯ and SD), Transverse Colon [4]: 7.37 ± 1.66 ng/g
- Carryover Factor (CF), Ascending Colon [5]: 0.0024
- Carryover Factor (CF), Cecum [5]: 0.0129
- Carryover Factor (CF), Descending Colon [5]: 0.1264
- Carryover Factor (CF), Duodenum [5]: 0.091
- Carryover Factor (CF), Ileum [5]: 0.002
- Carryover Factor (CF), Jejunum [5]: 0.010
- Carryover Factor (CF), Liver [5]: 0.0142
- Carryover Factor (CF), Transverse Colon [5]: 0.0046
- ZEN Concentrations (x¯ and SD), Cecum [5]: 18.17 ± 5.02 ng/g
- ZEN Concentrations (x¯ and SD), Duodenum [5]: 128 ng/g and 128.18 ± 64.54 ng/g
- Carryover Factor (CF), Ascending Colon [6]: 0.0014
- Carryover Factor (CF), Cecum [6]: 0.0081
- Carryover Factor (CF), Descending Colon [6]: 0.0666
- Carryover Factor (CF), Duodenum [6]: 0.048
- Carryover Factor (CF), Ileum [6]: 0.016
- Carryover Factor (CF), Jejunum [6]: 0.005
- Carryover Factor (CF), Liver [6]: 0.0136
- Carryover Factor (CF), Transverse Colon [6]: 0.0039
- ZEN Concentrations (x¯ and SD), Ileum [6]: 27.52 ± 10.28 ng/g
- ZEN Concentrations (x¯ and SD), Liver [6]: 23.00 ± 0.79 ng/g
- CF, Average values, Ascending Colon (average of Weeks I-VI): 0.0033
- CF, Average values, Cecum (average of Weeks I-VI): 0.0089
- CF, Average values, Descending Colon (average of Weeks I-VI): 0.0688
- CF, Average values, Duodenum (average of Weeks I-VI): 0.0375
- CF, Average values, Ileum (average of Weeks I-VI): 0.0091
- CF, Average values, Jejunum (average of Weeks I-VI): 0.0233
- CF, Average values, Liver (average of Weeks I-VI): 0.0159
- CF, Average values, Transverse Colon (average of Weeks I-VI): 0.0054
- ZEN concentration, Average values, Ascending Colon (average of Weeks I-VI): 2.805 ng/g
- ZEN concentration, Average values, Descending Colon (average of Weeks I-VI): 85.525 ng/g
- ZEN concentration, Average values, Duodenum (average of Weeks I-VI): 43.93 ng/g
- ZEN concentration, Average values, Ileum (average of Weeks I-VI): 8.705 ng/g
- ZEN concentration, Average values, Jejunum (average of Weeks I-VI): 18.208 ng/g
- ZEN concentration, Average values, Liver (average of Weeks I-VI): 14.72 ng/g
- average ileal concentrations of ZEN (between Week I and Week V): 4.9 ng/g
- concentration at 4 weeks (ascending colon, 40 μg/kg BW daily, Week IV of exposure, total ZEN dose 1120 µg/kg BW, read-out: ZEN Concentrations (x¯ and SD), Ascending Colon): 4.7 ng/g
- concentration at 5 weeks (ascending colon, 40 μg/kg BW daily, Week V of exposure, total ZEN dose 1400 µg/kg BW, read-out: ZEN Concentrations (x¯ and SD), Ascending Colon): 3.4 ± 0.54 ng/g
- concentration at 1 week (ascending colon, 40 μg/kg BW, Week I of exposure, total ZEN dose 280 µg/kg BW, read-out: ZEN Concentrations (x¯ and SD), Ascending Colon): 1.53 ± 1.95 ng/g
- concentration at 2 weeks (ascending colon, 40 μg/kg BW, Week II of exposure, total ZEN dose 560 µg/kg BW, read-out: ZEN Concentrations (x¯ and SD), Ascending Colon): 1.59 ± 2.76 ng/g
- concentration at 3 weeks (ascending colon, 40 μg/kg BW, Week III of exposure, total ZEN dose 840 µg/kg BW, read-out: ZEN Concentrations (x¯ and SD), Ascending Colon): 3.16 ± 1.79 ng/g
- concentration at 6 weeks (ascending colon, 40 μg/kg BW, Week VI of exposure, total ZEN dose 1680 µg/kg BW, read-out: ZEN Concentrations (x¯ and SD), Ascending Colon): 2.46 ± 1.92 ng/g
- concentration at 5 weeks (cecum, 40 μg/kg BW daily, Week V of exposure, total ZEN dose 1400 µg/kg BW, read-out: ZEN Concentrations (x¯ and SD), Cecum): 18.2 ng/g
- concentration at 6 weeks (cecum, 40 μg/kg BW, Week VI of exposure, total ZEN dose 1680 µg/kg BW, read-out: ZEN Concentrations (x¯ and SD), Cecum): 13.7 ± 1.17 ng/g
- concentration at 4 weeks (descending colon, 40 μg/kg BW daily, Week IV of exposure, total ZEN dose 1120 µg/kg BW, read-out: ZEN Concentrations (x¯ and SD), Descending Colon): 205 ng/g
- concentration at 5 weeks (descending colon, 40 μg/kg BW daily, Week V of exposure, total ZEN dose 1400 µg/kg BW, read-out: ZEN Concentrations (x¯ and SD), Descending Colon): 177 ± 50.6 ng/g
- concentration at 6 weeks (descending colon, 40 μg/kg BW, Week VI of exposure, total ZEN dose 1680 µg/kg BW, read-out: ZEN Concentrations (x¯ and SD), Descending Colon): 112 ± 13.7 ng/g
- concentration at 1 week (duodenum, 40 μg/kg BW daily, Week I of exposure, total ZEN dose 280 µg/kg BW, read-out: ZEN Concentrations (x¯ and SD), Duodenum): 8.6 ng/g
- concentration at 5 weeks (duodenum, 40 μg/kg BW daily, Week V of exposure, total ZEN dose 1400 µg/kg BW, read-out: ZEN Concentrations (x¯ and SD), Duodenum): 128 ng/g
- concentration at 6 weeks (duodenum, 40 μg/kg BW, Week VI of exposure, total ZEN dose 1680 µg/kg BW, read-out: ZEN Concentrations (x¯ and SD), Duodenum): 80.7 ± 4.34 ng/g
- concentration at 6 weeks (ileum, 40 μg/kg BW daily, Week VI of exposure, total ZEN dose 1680 µg/kg BW, read-out: ZEN Concentrations (x¯ and SD), Ileum): 27.5 ng/g
- concentration at 4 weeks (jejunum, 40 μg/kg BW daily, Week IV of exposure, total ZEN dose 1120 µg/kg BW, read-out: ZEN Concentrations (x¯ and SD), Jejunum): 43.8 ng/g
- concentration at 6 weeks (jejunum, 40 μg/kg BW daily, Week VI of exposure, total ZEN dose 1680 µg/kg BW, read-out: ZEN Concentrations (x¯ and SD), Jejunum): 8.3 ng/g
- concentration at 4 weeks (liver, 40 μg/kg BW daily, Week IV of exposure, total ZEN dose 1120 µg/kg BW, read-out: ZEN Concentrations (x¯ and SD), Liver): 18.2 ± 5.92 ng/g
- concentration at 5 weeks (liver, 40 μg/kg BW daily, Week V of exposure, total ZEN dose 1400 µg/kg BW, read-out: ZEN Concentrations (x¯ and SD), Liver): 20 ± 2.43 ng/g
- concentration at 6 weeks (liver, 40 μg/kg BW daily, Week VI of exposure, total ZEN dose 1680 µg/kg BW, read-out: ZEN Concentrations (x¯ and SD), Liver): 23 ng/g
- concentration at 3 weeks (liver, 40 μg/kg BW, Week III of exposure, total ZEN dose 840 µg/kg BW, read-out: ZEN Concentrations (x¯ and SD), Liver): 13 ± 1.78 ng/g
- concentration at 4 weeks (transverse colon, 40 μg/kg BW daily, Week IV of exposure, total ZEN dose 1120 µg/kg BW, read-out: ZEN Concentrations (x¯ and SD), Transverse Colon): 7.4 ng/g
- concentration at 5 weeks (transverse colon, 40 μg/kg BW daily, Week V of exposure, total ZEN dose 1400 µg/kg BW, read-out: ZEN Concentrations (x¯ and SD), Transverse Colon): 6.49 ± 0.96 ng/g
- concentration at 2 weeks (transverse colon, 40 μg/kg BW, Week II of exposure, total ZEN dose 560 µg/kg BW, read-out: ZEN Concentrations (x¯ and SD), Transverse Colon): 4.63 ± 3.86 ng/g
- concentration at 3 weeks (transverse colon, 40 μg/kg BW, Week III of exposure, total ZEN dose 840 µg/kg BW, read-out: ZEN Concentrations (x¯ and SD), Transverse Colon): 3.94 ± 0.57 ng/g
- concentration at 6 weeks (transverse colon, 40 μg/kg BW, Week VI of exposure, total ZEN dose 1680 µg/kg BW, read-out: ZEN Concentrations (x¯ and SD), Transverse Colon): 6.7 ± 0.25 ng/g
